Results taken from US20080311126A1, “Antisense Oligonucleotides Directed to Ribonucleotide Reducatase R2 and Uses Thereof in Combination Therapies for the Treatment of Cancer” (Genesense Technologies, Inc, priority 2004, published 2008).
Oligonucleotides are written 5' to 3', each unit as a sugar letter and its base; * is a phosphorothioate linkage, no mark a phosphodiester; rarer units and linkages stand in square brackets, end groups in braces. Plain capitals give the bases only. d = 2'-deoxy (DNA)

Columns and labels:
[1] = tested on: LS513 multi-drug resistant colon carcinoma cells; assay: LS513 multi-drug resistant colon carcinoma xenograft in SCID mice; format: in vivo, human; conditions: LS513 (colon) multi-drug resistant (CPT-11 sensitive); SCID
Procedure: LSS13 multi-drug resistant colon carcinoma cells (1×10^7 cells in 100 μl of PBS) were subcutaneously injected into the right flank of 6-7 weeks old female SCID mice. After the size of tumour reached an approximate volume of […], 8 days post tumour cell injection, SEQ ID NO:1 was administered by bolus infusion into the tail vein every other day at 10 mg/kg. Control animals received saline alone for the same period. Antitumour effect of SEQ ID NO:1 was further compared to that of CPT-11 alone or in combination. CPT-11 was administered i.p. for 5 days at a dose of 20 mg/kg/day. Antitumour activities were estimated by the inhibition of tumour volume, which was measured with caliper. Each point represents mean tumour volume calculated from 10 animals per experimental group. Tumour weights were measured after animals were sacrificed at the end of the treatment. These cells are not resistant to CPT-11 which was used as a positive control.

[2] = tested on: HT-29 human colon cancer cells; assay: HT-29 colon tumour xenograft in CD-1 nude mice; format: in vivo; conditions: HT-29 (colon); Mouse CD-1; CPT-11 study
Procedure: HT-29 human colon cancer cells (3×10^6 cells in 100 μl of PBS) were subcutaneously injected into the right flank of 6-7 weeks old female CD-1 nude mice. After the size of tumour reached an approximate volume of 50 mm^3, 4 days post tumour cell injection, mitomycin C was administered by bolus infusion into the tail vein at days 4, 11 and 18 with a dose of 3.5 mg/kg/week. Antitumour effect of mitomycin C was further compared to that of SEQ ID NO:1 in combination with mitomycin C. SEQ ID NO:1 was administered by bolus infusion into the tail vein every day at 6 mg/kg and mitomycin C was administered intravenously at days 4, 11 and 18 with a dose of 3.5 mg/kg/week, one hour after the treatments with SEQ ID NO:1. Control animals received saline alone for the same period as SEQ ID NO:1. All treatments were stopped at day 22. A day after the last treatment, tumours were excised from the animals and their weights were measured.
HT-29 human colon cancer cells (3×10^6 cells in 100 μl of PBS) were subcutaneously injected into the right flank of 5-6 week old female CD-1 nude mice. After the size of tumour reached an approximate volume of 100 mm^3, 7 days post tumour cell injection, SEQ ID NO:1 was administered by bolus infusion into the tail vein every other day at 10 mg/kg. Control animals received saline alone for the same period. Antitumour effect of SEQ ID NO:1 was further compared to that of CPT-11 alone or that of SEQ ID NO:1 in combination with CPT-11. CPT-11 was administered intraperitoneally for 5 days in a row from […] with a dose of 20 mg/kg in 100 μl saline. All treatments were stopped at day 32. A day after the last treatment, tumours were excised from the animals and their weights were measured.
HT-29 human colon cancer cells (3×10^6 cells in 100 μl of PBS) were subcutaneously injected into the right flank of 6-7 week old female CD-1 nude mice. Treatments started at day 5 post tumour cell injection, SEQ ID NO:1 and 5-FU were administered as outlined below: • Groups and treatment: • Group 1. Saline treated group: saline:0.1 ml/2 days, i.v.; • Group 2. SEQ ID NO:1 treated group: 10 mg/kg/2 days in 100 μL saline, i.v.; • Group 3. 5-FU treated group:13 mg/kg/5 days/week (one week on and one week off), i.v.; • Group 4. SEQ ID NO:1 plus 5-FU treated group.
HT-29 human colon cancer cells (3×10^6 cells in 100 μl of PBS) were subcutaneously injected into the right flank of 5-6 week old female CD-1 nude mice. Treatments started 4 days post tumour cell injection, SEQ ID NO: 1 and Capecitabine were administered as outlined below: • Group and Treatment: • Group 1: treated with 0.2 ml vehicle solution for capecitabine, o.p.; • Group 2: treated with 0.1 ml saline, i.v.; • Group 3: treated with 359 mg/kg/day×5/w Capecitabine in 0.2 ml vehicle solution, o.p.; • Group 4: treated with 10 mg/kg/2 days SEQ ID NO:1 in 0.1 ml saline i.v.; • Group 5: treated with 10 mg/kg/2 days SEQ ID NO:1 in 0.1 ml saline, i.v. plus 359 mg/kg/day×5/w capecitabine in 0.2 ml vehicle solution, o.p.

[3] = tested on: A2058 human melanoma cells; assay: A2058 melanoma xenograft in CD-1 nude mice; format: in vivo; conditions: A2058 (melanoma); Mouse CD-1
Procedure: A2058 human melanoma cells 1×10^7 cells in 100 μl of PBS) were subcutaneously injected into the right flank of 6-7 week old female CD-1 nude mice. A2058 is a metastatic melanoma cell line. After the size of tumour reached an approximate volume of 100 mm^3, 6 days post tumour cell injection, SEQ ID NO:1 was administered by bolus infusion into the tail vein every other day at 10 mg/kg. Control animals received saline alone for the same period. Antitumour effect of SEQ ID NO:1 was further compared to that of dacarbazine (DTIC) alone or that of SEQ ID NO:1 in combination with DTIC. DTIC was administered intravenously for 5 days in a row from day 6-10 at a dose of 80 mg/kg in 100 μl saline. All treatments were stopped at day 24. A day after the last treatment, tumours were excised from the animals and their weights were measured.

[4] = tested on: PC-3 human prostatic cancer cells; assay: PC-3 prostatic tumour xenograft in SCID mice; format: in vivo
Procedure: In both experiments, PC-3 human prostatic cancer cells (1×10^7 cells in 100 μl of PBS) were subcutaneously injected into the right flank of 6-7 weeks old male SCID mice. After the size of tumour reached an approximate volume of 50 mm^3, 14 days post tumour cell injection, SEQ ID NO:1 was administered by bolus infusion into the tail vein every other day at 10 mg/kg 18 times (FIG. 14A) or 17 times (FIG. 14B), respectively. Control animals received saline alone for the same period. Antitumour effect of SEQ ID NO:1 was further compared to that of mitoxantrone (Novantrone®) alone or in combination. Mitoxantrone was administered intravenously once at the beginning of the treatments at a dose of 2 mg/kg (FIG. 14A) or once a week for four weeks at a reduced dose of 0.8 mg/kg (FIG. 14B). All treatments were stopped at day 50 (FIG. 14A) or 48 (FIG. 14B), respectively. A day after the last treatment, tumours were excised from the animals and their weights were measured.

[5] = tested on: DU145 human prostatic cancer cells; assay: DU145 prostatic tumour xenograft in SCID mice; format: in vivo; conditions: for Tumour weight as % of saline control: DU145 (prostatic), Mouse SCID
Procedure: In both experiments, DU145 human prostatic cancer cells (1×10^7 cells in 100 μl of PBS) were subcutaneously injected into the right flank of 6-7 weeks old male SCID mice. After the size of tumour reached an approximate volume of 50 mm^3, 13 FIG. 15A) or 11 (FIG. 15B) days post tumour cell injection, SEQ ID NO:1 was administered by bolus infusion into the tail vein every other day at 10 mg/kg 15 times (FIG. 15A) or 14 times (FIG. 15B), respectively. Control animals received saline alone for the same period. Antitumour effect of SEQ ID NO:1 was further compared to that of mitoxantrone (Novantrone®) alone or in combination. Mitoxantrone was administered intravenously once at the beginning of the treatments at a dose of 2 mg/kg (FIG. 15A) or once a week for four weeks at a reduced dose of 0.8 mg/kg (FIG. 15B). All treatments were stopped at day 42 (FIG. 15A) or 38 (FIG. 15B); respectively. A day after the last treatment, tumours were excised from the animals and their weights were measured.

[6] = tested on: HepG2 hepatocellular carcinoma; assay: Relative colony forming efficiency (Example 17, Table 13); format: cell-based, human; conditions: averages of 2-8 determinations
Outline: (§1)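 Phosphorothioate antisense oligodeoxynucleotides, at 0.2 μM unless otherwise indicated, were applied with 2.5 μg DOTMA/DOPE (Lipofectin) for 4 h. Colonies stained with methylene blue and scored, with viability sometimes checked by trypan blue exclusion. Values given as % inhibition of colony formation relative to lipofectin-only controls.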

[7] = tested on: HCT116 colon cell carcinoma; assay: as above; format: cell-based, human; conditions: averages of 2-8 determinations
Outline: as §1

[8] = tested on: H596 lung adenosquamous carcinoma cells; assay: as above; format: cell-based, human; conditions: averages of 2-8 determinations
Outline: as §1

[9] = tested on: MDA-MB-231 breast cell adenocarcinoma; assay: as above; format: cell-based, human; conditions: averages of 2-8 determinations
Outline: as §1

[10] = tested on: PC-3 prostrate cell adenocarcinoma; assay: as above; format: cell-based, human; conditions: averages of 2-8 determinations
Outline: as §1

[11] = tested on: MDA PaCa-2 pancreatic cell carcinoma; assay: as above; format: cell-based, human; conditions: MIA PaCa-2 pancreatic cell carcinoma; averages of 2-8 determinations
Outline: as §1

[12] = tested on: T24 bladder cell carcinoma; assay: as above; format: cell-based, human; conditions: averages of 2-8 determinations
Outline: as §1

A549 lung cell carcinoma = assay: as above; format: cell-based, human; conditions: averages of 2-8 determinations
Outline: as §1

[13] = tested on: Colo320 colon cell adenocarcinoma; assay: as above; format: cell-based, human; conditions: averages of 2-8 determinations
Outline: as §1

[14] = tested on: T-47D breast ductal carcinoma; assay: as above; format: cell-based, human; conditions: averages of 2-8 determinations
Outline: as §1

Hela S3 cells = assay: Relative colony forming efficiency, lipofectin +/- oligonucleotide 4 hours; format: cell-based, human; conditions: Hela S3 cervix carcinoma cells; averages of 2-8 determinations
Outline: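 HeLa S3 cells were exposed to phosphorothioate antisense oligonucleotide (0.2 μM unless stated) with lipofectin for 4 h, then grown 7–10 days in 10% FBS medium. Methylene blue-stained colonies were counted and expressed as percent survival relative to lipofectin-only controls.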

Molecule | Reduced relative colony forming efficiency, HepG2 (% inhibition of colony forming ability) [6] | Reduced relative colony forming efficiency, HCT116 (% inhibition of colony forming ability) [7] | Reduced relative colony forming efficiency, 11596 (% inhibition of colony forming ability) [8] | Reduced relative colony forming efficiency, MDA-MB-231 (% inhibition of colony forming ability) [9] | Reduced relative colony forming efficiency, PC-3 (% inhibition of colony forming ability) [10] | Reduced relative colony forming efficiency, MIA PaCa-2 (% inhibition of colony forming ability) [11] | Reduced relative colony forming efficiency, A549 (% inhibition of colony forming ability) (A549 lung cell carcinoma) | Reduced relative colony forming efficiency, Co1o320 (% inhibition of colony forming ability) [13] | Reduced relative colony forming efficiency, T-47D (% inhibition of colony forming ability) [14] | Reduced relative colony forming efficiency, Hela S3 (% inhibition of colony forming ability) (Hela S3 cells) | further results
CCc1c2c(nc3ccc(OC(=O)N4CCC(N5CCCCC5)CC4)cc13)-c1cc3c(c(=O)n1C2)COC(=O)[C@]3(O)CC [CPT-11, Irinotecan, reference compound] |  |  |  |  |  |  |  |  |  |  | Tumour weight as % of saline control [1]: 47%; Tumour weight as % of saline control [2]: 36%
CN(C)/N=N/c1[nH]cnc1C(N)=O [DTIC, dacarbazine, reference compound] |  |  |  |  |  |  |  |  |  |  | Tumour weight as % of saline control [3]: 68%
O=C1c2c(O)ccc(O)c2C(=O)c2c(NCCNCCO)ccc(NCCNCCO)c21 [Novantrone, mitoxantrone] |  |  |  |  |  |  |  |  |  |  | antitumour effect (tumour weight) ([4]; FIG. 14B, SEQ ID NO:1 10 mg/kg 17 times, mitoxantrone 0.8 mg/kg once a week for four weeks): significant delay of tumour growth; Tumour weight as % of saline control ([4]; PC-3 (prostatic), Mouse SCID): 57%; Tumour weight as % of saline control ([5]; first of two value columns (two independent experiments)): 40%; Tumour weight as % of saline control ([5]; second of two value columns (two independent experiments)): 60%; antitumour effect (tumour weight) ([5]; FIG. 15B, SEQ ID NO:1 10 mg/kg 14 times, mitoxantrone 0.8 mg/kg once a week for four weeks): significant delay of tumour growth
CCTTGCCCTGAGAGATTCCT (antisense dC*dC*dT*dT*dG*dC*dC*dC*dT*dG*dA*dG*dA*dG*dA*dT*dT*dC*dC*dT) [AS-II-2083-20] | 93.64% | 87.46% | 82.98% | 68.88% | 32.03% | 71% | 90.65% | 87.28% | 89.32% | 84.58% | Reduced relative colony forming efficiency, HepG2 (% inhibition of colony forming ability) ([6]; listed as AS-II-2083-20 *): 46.14%; Reduced relative colony forming efficiency, HCT116 (% inhibition of colony forming ability) ([7]; listed as AS-II-2083-20 *): 41.16%; Reduced relative colony forming efficiency, 11596 (% inhibition of colony forming ability) ([8]; listed as AS-II-2083-20 *): 49.37%; Reduced relative colony forming efficiency, T24 (% inhibition of colony forming ability) [12]: 82.43%; Reduced relative colony forming efficiency, T24 (% inhibition of colony forming ability) ([12]; listed as AS-II-2083-20 *): 9.52%; Reduced relative colony forming efficiency, A549 (% inhibition of colony forming ability) (A549 lung cell carcinoma; listed as AS-II-2083-20 *): 31.73%; Reduced relative colony forming efficiency, Co1o320 (% inhibition of colony forming ability) ([13]; listed as AS-II-2083-20 *): 52.54%; Reduced relative colony forming efficiency, T-47D (% inhibition of colony forming ability) ([14]; listed as AS-II-2083-20 *): 43.61%
GAGCAGCCAGGACAGGACGG (antisense dG*dA*dG*dC*dA*dG*dC*dC*dA*dG*dG*dA*dC*dA*dG*dG*dA*dC*dG*dG) [AS-II-151-20] | 89.53% | 78.09% | 69.12% | 41.64% | 35.68% | 75.38% | 84.28% | 90.12% | 95.39% | 66.75% | 
